# From patent publication US10906873B2, “Substituted cyclic amides as herbicides” (FMC Corporation, priority 2015, dated 2021)
# What was measured:
# Assay type in all cases: in vivo
# [1] = system: barnyardgrass (Echinochloa crus-galli); test: Test A preemergence, barnyardgrass; conditions: 0 to 100 scale
# Method in brief: (§1)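 Test chemicals in non-phytotoxic solvent with surfactant applied either as a directed preemergence soil spray on seeds planted in loam soil-sand blend or as a postemergence spray onto plants 2-10 cm tall at one- to two-leaf stage grown in the same blend. Kept ~10 d in greenhouse, then injury rated visually against untreated controls on 0 (no effect) to 100 (complete control) scale.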
# [2] = system: kochia (Kochia scoparia); test: Test A preemergence, kochia; conditions: 0 to 100 scale
# Method in brief: as §1
# [3] = system: ragweed (common ragweed, Ambrosia elatior); test: Test A preemergence, ragweed; conditions: 0 to 100 scale
# Method in brief: as §1
# [4] = system: ryegrass, It. (Italian ryegrass, Lolium multiflorum); test: Test A preemergence, ryegrass, It.; conditions: 0 to 100 scale
# Method in brief: as §1
# [5] = system: foxtail, giant (giant foxtail, Setaria faberii); test: Test A preemergence, foxtail, giant; conditions: 0 to 100 scale
# Method in brief: as §1
# [6] = system: pigweed (Amaranthus retroflexus); test: Test A preemergence, pigweed; conditions: 0 to 100 scale
# Method in brief: as §1
# [7] = system: barnyardgrass (Echinochloa crus-galli); test: Test A postemergence, barnyardgrass; conditions: 0 to 100 scale
# Method in brief: as §1
# [8] = system: kochia (Kochia scoparia); test: Test A postemergence, kochia; conditions: 0 to 100 scale
# Method in brief: as §1
# [9] = system: ragweed (common ragweed, Ambrosia elatior); test: Test A postemergence, ragweed; conditions: 0 to 100 scale
# Method in brief: as §1
# [10] = system: ryegrass, It. (Italian ryegrass, Lolium multiflorum); test: Test A postemergence, ryegrass, It.; conditions: 0 to 100 scale
# Method in brief: as §1
# [11] = system: foxtail, giant (giant foxtail, Setaria faberii); test: Test A postemergence, foxtail, giant; conditions: 0 to 100 scale
# Method in brief: as §1
# [12] = system: wheat (Triticum aestivum); test: Test A postemergence, wheat; conditions: 0 to 100 scale
# Method in brief: as §1
# [13] = system: corn (Zea mays); test: Test A postemergence, corn; conditions: 0 to 100 scale
# Method in brief: as §1
# [14] = system: pigweed (Amaranthus retroflexus); test: Test A postemergence, pigweed; conditions: 0 to 100 scale
# Method in brief: as §1
# [15] = system: blackgrass (Alopecurus myosuroides); test: Test A postemergence, blackgrass; conditions: 0 to 100 scale
# Method in brief: as §1
# [16] = system: galium (catchweed bedstraw, Galium aparine); test: Test A postemergence, galium; conditions: 0 to 100 scale
# Method in brief: as §1
# [17] = system: barnyardgrass (Echinochloa crus-galli); test: Test B flooded paddy test, barnyardgrass; conditions: Flood, 250 g ai/ha; scale of 0 to 100 where 0 is no effect and 100 is complete control; 13 to 15 d
# Method in brief: (§2)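 Plants grown to the 2-leaf stage. At treatment, pots were flooded to 3 cm above the soil, compound was applied directly to the paddy water, and that depth was held throughout. After 13 to 15 d in the greenhouse, response was rated visually against controls on a 0 (no effect) to 100 (complete control) scale.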
# [18] = system: ducksalad (Heteranthera limosa); test: Test B flooded paddy test, ducksalad; conditions: Flood, 250 g ai/ha; scale of 0 to 100 where 0 is no effect and 100 is complete control; 13 to 15 d
# Method in brief: as §2
# [19] = system: rice (Oryza sativa); test: Test B flooded paddy test, rice; conditions: Flood, 250 g ai/ha; scale of 0 to 100 where 0 is no effect and 100 is complete control; 13 to 15 d
# Method in brief: as §2
# [20] = system: sedge, umbrella (small-flower umbrella sedge, Cyperus difformis); test: Test B flooded paddy test, sedge, umbrella; conditions: Flood, 250 g ai/ha; scale of 0 to 100 where 0 is no effect and 100 is complete control; 13 to 15 d
# Method in brief: as §2
SMILES,"Plant response rating, Barnyardgrass ([1]; 125 g ai/ha)","Plant response rating, Barnyardgrass ([1]; 500 g ai/ha)","Plant response rating, Kochia ([2]; 125 g ai/ha)","Plant response rating, Kochia ([2]; 500 g ai/ha)","Plant response rating, Ragweed ([3]; 125 g ai/ha)","Plant response rating, Ragweed ([3]; 500 g ai/ha)","Plant response rating, Ryegrass, It. ([4]; 125 g ai/ha)","Plant response rating, Ryegrass, It. ([4]; 500 g ai/ha)","Plant response rating, Foxtail, Giant ([5]; 125 g ai/ha)","Plant response rating, Foxtail, Giant ([5]; 500 g ai/ha)","Plant response rating, Pigweed ([6]; 125 g ai/ha)","Plant response rating, Pigweed ([6]; 500 g ai/ha)","Plant response rating, Barnyardgrass ([7]; 125 g ai/ha)","Plant response rating, Barnyardgrass ([7]; 500 g ai/ha)","Plant response rating, Kochia ([8]; 125 g ai/ha)","Plant response rating, Kochia ([8]; 500 g ai/ha)","Plant response rating, Ragweed ([9]; 125 g ai/ha)","Plant response rating, Ragweed ([9]; 500 g ai/ha)","Plant response rating, Ryegrass, It. ([10]; 125 g ai/ha)","Plant response rating, Ryegrass, It. ([10]; 500 g ai/ha)",also measured
O=C1NCC(/C=C/c2ccc(F)cc2)C1C(=O)Nc1cccc(F)c1F (stereo not drawn) [Compound 31],0,70,0,20,0,0,0,0,20,70,0,0,30,70,0,30,0,20,0,20,"Plant response rating, Foxtail, Giant ([11]; 125 g ai/ha): 30; Plant response rating, Foxtail, Giant ([11]; 500 g ai/ha): 60; Plant response rating, Wheat ([12]; 125 g ai/ha): 0; Plant response rating, Wheat ([12]; 500 g ai/ha): 0; Plant response rating, Corn ([13]; 125 g ai/ha): 0; Plant response rating, Corn ([13]; 500 g ai/ha): 20; Plant response rating, Pigweed ([14]; 125 g ai/ha): 0; Plant response rating, Pigweed ([14]; 500 g ai/ha): 0; Plant response rating, Blackgrass ([15]; 125 g ai/ha): 0; Plant response rating, Blackgrass ([15]; 500 g ai/ha): 0; Plant response rating, Galium ([16]; 125 g ai/ha): 0; Plant response rating, Galium ([16]; 500 g ai/ha): 30; Plant response rating, Barnyardgrass [17]: 40; Plant response rating, Ducksalad [18]: 80; Plant response rating, Rice [19]: 15; Plant response rating, Sedge, Umbrella [20]: 50"
O=C1NCC(/C=C/c2ccccc2)C1C(=O)Nc1ccccc1F (stereo not drawn) [Compound 32],20,60,0,0,0,0,0,0,0,80,0,0,40,90,0,0,10,10,0,0,"Plant response rating, Foxtail, Giant ([11]; 125 g ai/ha): 20; Plant response rating, Foxtail, Giant ([11]; 500 g ai/ha): 80; Plant response rating, Wheat ([12]; 125 g ai/ha): 0; Plant response rating, Wheat ([12]; 500 g ai/ha): 0; Plant response rating, Corn ([13]; 125 g ai/ha): 20; Plant response rating, Corn ([13]; 500 g ai/ha): 20; Plant response rating, Pigweed ([14]; 125 g ai/ha): 0; Plant response rating, Pigweed ([14]; 500 g ai/ha): 0; Plant response rating, Blackgrass ([15]; 125 g ai/ha): 0; Plant response rating, Blackgrass ([15]; 500 g ai/ha): 0; Plant response rating, Galium ([16]; 125 g ai/ha): 0; Plant response rating, Galium ([16]; 500 g ai/ha): 0; Plant response rating, Barnyardgrass [17]: 0; Plant response rating, Ducksalad [18]: 70; Plant response rating, Rice [19]: 0; Plant response rating, Sedge, Umbrella [20]: 0"
"O=C1NCC(/C=C/c2ccccc2)C1C(=O)Nc1cccc(F)c1F (stereo not drawn) [Compound 33, N-(2,3-difluorophenyl)-2-oxo-4-[(1E)-2-phenylethenyl]-3-pyrrolidinecarboxamide]",50,90,0,20,0,0,0,0,50,90,0,0,50,90,0,0,10,10,0,0,"Plant response rating, Foxtail, Giant ([11]; 125 g ai/ha): 70; Plant response rating, Foxtail, Giant ([11]; 500 g ai/ha): 70; Plant response rating, Wheat ([12]; 125 g ai/ha): 0; Plant response rating, Wheat ([12]; 500 g ai/ha): 0; Plant response rating, Corn ([13]; 125 g ai/ha): 0; Plant response rating, Corn ([13]; 500 g ai/ha): 0; Plant response rating, Pigweed ([14]; 125 g ai/ha): 0; Plant response rating, Pigweed ([14]; 500 g ai/ha): 0; Plant response rating, Blackgrass ([15]; 125 g ai/ha): 0; Plant response rating, Blackgrass ([15]; 500 g ai/ha): 0; Plant response rating, Galium ([16]; 125 g ai/ha): 0; Plant response rating, Galium ([16]; 500 g ai/ha): 0; Plant response rating, Barnyardgrass [17]: 40; Plant response rating, Ducksalad [18]: 95; Plant response rating, Rice [19]: 0; Plant response rating, Sedge, Umbrella [20]: 0"
